From patent US20060287316A1, “METHOD FOR IMPROVING PHARMACOKINETICS OF PROTEASE INHIBITORS AND PROTEASE INHIBITOR PRECURSORS” (priority 2005, published 2006) come the findings set out here.

This data set can be described thus: Pharmacokinetics of PL-100 and PL-461 in rats. The format is in vivo, Sprague Dawley rats (Rattus norvegicus). Conditions: 5 mg/kg i.v., female rats. The procedure:
Animal tested are Sprague Dawley rats (species Rattus norvegicus) of 6-7 weeks old at the start of dosing and were obtained from Charles River (Montreal, Canada). The study usually comprises about 6 animals per groups. […] The rats were fasted 3 h. before dosing and 3 h. after dosing. The formulations are prepared as indicated below. The solutions are stable at room temperature over a week and are covered with aluminum foil to avoid lights. […] The dosing volume for all formulations is 2 mL per kg body weight. Blood sample was collected at 15 min, 30 min, 45 min, 1 […] after the dosing. Blood samples were centrifuged to separate the plasma and separated plasma samples were placed into cryovials and frozen at -80° C. for further analysis. Plasma samples together with standards and quality control samples were treated by protein precipitation and then analyzed by HPLC-MS. […] The PK profile was obtained by administration of the test drugs; PL-100 and PL-461 in rats. […] The pharmacokinetic parameters of PL-100 and PL-461 in rats** was compared.

[1] abbreviates: Sprague Dawley, rat, plasma, iv.

The AUC(0-inf) is the area under the concentration-time curve extrapolated to infinity. A lower AUC(0-inf) goes with low exposure. What is called AUC(0-t) is the area under the concentration-time curve up to a stated or last time point. Read a low AUC(0-t) as less exposure. What is called Cmax is the maximum level reached in the sampled fluid or tissue. For orientation: Tmax means the time from dosing to the highest level.

Molecules are shown by their SMILES.

Turning to `COC(=O)N[C@H](C(=O)NCCCC[C@@H](CO)N(CC(C)C)S(=O)(=O)c1ccc(N)cc1)C(c1ccccc1)c1ccccc1` [PL-100, (1S,5S)-(1-{5-[(4-amino-benzenesulfonyl)-isobutyl-amino]-6-hydroxy-hexylcarbamoyl}-2,2-diphenyl-ethyl)-carbamic acid methyl ester], the Cl_F came out at 58.3 mL/min/kg, the Tlast was 6 h, the Vz_F turned out to be 6.1 L/kg and the λz was 0.52 h⁻¹. Also, for the setting “Sprague Dawley, rat, plasma, intravenous, read-out: Clast”, the concentration at 6 hr is 44 ng/mL. Besides, under setting [1], the AUC(0-inf) was determined as 1430 ng·h/mL, the AUC(0-t) came to 1370 ng·h/mL, the Cmax amounted to 1800 ng/mL and the Tmax was 6 min. Moreover, where the note is “Sprague Dawley, rat, plasma, iv, read-out: T½ (converted)”, the half-life is 72 min.
